Here are results for 13 compounds from PubChem BioAssay (NCI).

Some test systems named below: HL-60(TB) leukemia; HCC-2998 colon; SK-MEL-28 melanoma; OVCAR-5 ovarian; DMS 114 small cell lung; SR leukemia; SN12C renal; KM20L2 colon; LOX IMVI melanoma.
Common to all, as to test: NCI-60 cell line screen, 48 h

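Cultured in 96-well plates, cells were exposed to test compound for 48 hours across five concentrations. TGI marks complete inhibition of growth.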 A value given as a limit tells only on which side of the number the result lay.

In the case of `O=C1CSC(C(N=Nc2ccc(Cl)cc2)c2nc3ccccc3[nH]2)=N1` (stereo not given), the TGI in the test with HL-60(TB) leukemia is greater than 100 µM; in the test with HCC-2998 colon, greater than 100 µM; in the test on SK-MEL-28 melanoma it was 92.2 µM; in the test on OVCAR-5 ovarian, greater than 100 µM; in the test with DMS 114 small cell lung it was 58.5 µM; in the test on SR leukemia, greater than 100 µM. In addition, the TGI in the test with SN12C renal and in the test with KM20L2 colon was greater than 100 µM each time.

Turning to `CCCCc1c2c(nc3c1CC/C(=C\c1ccc([N+](=O)[O-])cc1)C3=O)CCCC2`, the TGI in the test on HCC-2998 colon was determined as 3.17 µM; in the test with SK-MEL-28 melanoma, 3.12 µM; with DMS 114 small cell lung, 4.4 µM; with SR leukemia, 35.5 µM; in the test with LOX IMVI melanoma, 3.05 µM; with SN12C renal, 3.34 µM. This compound also had a TGI in the test with KM20L2 colon of 4.01 µM.

Consider `COc1cc2cc3c4c(cc(OC)c(OC)c4c2cc1OC)CCN3C(=O)CCC(=O)O`, for which the TGI in the test on HL-60(TB) leukemia, in the test on HCC-2998 colon, with SK-MEL-28 melanoma, in the test with OVCAR-5 ovarian, in the test with DMS 114 small cell lung and with SR leukemia was greater than 100 µM throughout. Also, the TGI in the test with LOX IMVI melanoma, in the test with SN12C renal and in the test with KM20L2 colon was greater than 100 µM each time.

Consider `CC(C)[C@](O)(C(=O)OCC1=CCN2CC[C@@H](O)[C@@H]12)[C@H](C)O`, for which the TGI in the test with HL-60(TB) leukemia is greater than 375 µM; with HCC-2998 colon, greater than 375 µM; in the test with SK-MEL-28 melanoma it was greater than 375 µM; in the test with OVCAR-5 ovarian it was greater than 375 µM; in the test with DMS 114 small cell lung, greater than 375 µM; in the test with LOX IMVI melanoma, greater than 174 µM. Also, the TGI with SN12C renal and in the test on KM20L2 colon was greater than 375 µM each time.

As to `CCN(CC)CC(=O)Nc1ccc2c(c1)C(=O)c1ccc(NC(=O)CN(CC)CC)cc1C2=O`, the TGI is 44.5 µM in the test with HL-60(TB) leukemia; greater than 100 µM with HCC-2998 colon; greater than 100 µM with SK-MEL-28 melanoma; greater than 100 µM in the test with OVCAR-5 ovarian; 37.4 µM with DMS 114 small cell lung; 41.7 µM with SR leukemia. Also, the results for the TGI in the test with LOX IMVI melanoma, in the test with SN12C renal and in the test on KM20L2 colon were 34.5 µM, greater than 100 µM and greater than 100 µM, respectively.

`COc1ccc(-c2nc3c(nc2-c2ccc(OC)cc2)N(C)S(=O)(=O)N=C3N)cc1`: the TGI was 43.7 µM in the test on HL-60(TB) leukemia; greater than 100 µM in the test on HCC-2998 colon; greater than 100 µM in the test on SK-MEL-28 melanoma; 94.6 µM in the test on OVCAR-5 ovarian; 72.7 µM in the test with DMS 114 small cell lung; 35.3 µM in the test on SR leukemia. Besides, the results for the TGI in the test on LOX IMVI melanoma, in the test on SN12C renal and in the test on KM20L2 colon were 29.9 µM, greater than 100 µM and greater than 100 µM, respectively.

Regarding `Cc1cc(C)c(C(=O)/C=C/c2ccccc2)c(C)c1`, the TGI in the test on HL-60(TB) leukemia is greater than 100 µM; in the test with DMS 114 small cell lung, 88.3 µM; in the test on SR leukemia, greater than 100 µM; with SN12C renal, 34.7 µM; in the test on KM20L2 colon, 96.9 µM.

For the compound `CCCCS(=O)CC(CO)NC(=O)/C=C/c1c(C)[nH]c(=O)[nH]c1=O` (stereo not given), the TGI is 21.5 µM in the test with HL-60(TB) leukemia; 30 µM with HCC-2998 colon; 44.5 µM in the test on SK-MEL-28 melanoma; 89.8 µM in the test on OVCAR-5 ovarian; 25.1 µM in the test on DMS 114 small cell lung; 40.9 µM with LOX IMVI melanoma. In addition, the TGI with SN12C renal is 49 µM; in the test on KM20L2 colon, 56.8 µM.

As to `COc1ccc2c(c1)CCN1C3=C(CCC3)C(=O)C[C@@H]21`, the TGI in the test with HL-60(TB) leukemia, with HCC-2998 colon, with SK-MEL-28 melanoma, in the test with OVCAR-5 ovarian, in the test on DMS 114 small cell lung and in the test on SR leukemia was greater than 100 µM throughout. In addition, the TGI in the test with LOX IMVI melanoma, with SN12C renal and in the test on KM20L2 colon was greater than 100 µM in each case.

Turning to `Cn1c(=O)c2nc(NCCO)cnc2n(C)c1=O`, the TGI in the test with HL-60(TB) leukemia is 76.9 µM; in the test on HCC-2998 colon, greater than 100 µM; in the test with SK-MEL-28 melanoma it was greater than 100 µM; in the test with OVCAR-5 ovarian, greater than 100 µM; in the test with DMS 114 small cell lung it was greater than 100 µM; with SR leukemia it was greater than 100 µM. The TGI in the test on SN12C renal and in the test on KM20L2 colon was greater than 100 µM each time.

Regarding `O=C1CCCN1CCCN=c1cc2n(-c3ccc(Cl)cc3)c3ccccc3nc-2cc1Nc1ccc(Cl)cc1`, the TGI with HL-60(TB) leukemia is 15.8 µM; with HCC-2998 colon it was 18.1 µM; in the test on SK-MEL-28 melanoma it was 47.5 µM; with OVCAR-5 ovarian, 37.3 µM; in the test with DMS 114 small cell lung, 20.2 µM; with LOX IMVI melanoma, 28.2 µM. Moreover, the TGI in the test on SN12C renal is 43.4 µM; in the test on KM20L2 colon, 11 µM.

For the compound `O=[N+]([O-])c1ccc(COc2cccc3cccnc23)cc1`, the TGI is 22.3 µM in the test with HL-60(TB) leukemia; greater than 100 µM in the test with HCC-2998 colon; 85 µM in the test on SK-MEL-28 melanoma; greater than 100 µM with OVCAR-5 ovarian; 6.92 µM in the test with DMS 114 small cell lung; 13.6 µM in the test with SR leukemia. The TGI is 29.2 µM with LOX IMVI melanoma, greater than 100 µM in the test on SN12C renal and greater than 100 µM in the test on KM20L2 colon.

On to `COC(=O)C1C(O)C(C)C(O)OC1C(C)C(O)C(C)/C=C\C=C(/C)C(=O)Nc1c(C)c(OC(C)=O)c2c(c1O)C(=O)C(C)=C1OCOC(/C(C)=C/C(C)=O)=C12` (stereo not given), for which the TGI in the test with HL-60(TB) leukemia amounted to 15.3 µM; in the test with HCC-2998 colon it was 26.3 µM; in the test with SK-MEL-28 melanoma, 4.96 µM; in the test on OVCAR-5 ovarian it was 25 µM; with DMS 114 small cell lung, 27.5 µM; in the test with LOX IMVI melanoma, 26.6 µM. Further, the TGI in the test on SN12C renal is 21.5 µM; with KM20L2 colon it was 24.4 µM.
